In one data set the test system is H69 cells. Description: BiOLOG Phenotype Microarray carbon substrate utilization. It counts as cell-based. The settings on record: LB100 20 μM overnight. From the text:
(§1) FIGS. 4A-4F depict a reactome pathway analysis of PamGene PTKs and STKs after LB-100 treatment of H524 cells and Biolog phenotype MicroArray. […] Table includes 10 carbon sources affected by LB-100 (n=3). […] P<0.001 (***) for control (untreated cells) vs. LB-100. FIG. 4D: Amplex Red Glucose/Oxidase assay kit was used to measure glucose level in cell culture media. […] Glucose concentration detected in initial medium and counted as 100%. Subtracting final medium level of glucose from initial glucose medium concentration yielded % glucose in the medium with cells (n=3). Effect of LB-100 on MET phosphorylation. FIG. 4E: H524 and H69 cells were treated overnight with LB-100 (H524—5 μM and H69—20 μM) following by stimulation with 100 ng/ml HGF in 10 min. Cells were collected and lysed for WB analysis with pMET and total MET antibody. Pan-actin was used as loading control (n=3). FIG. 4F: H524 cell lysates (control, LB-100, carboplatin and combination (LB-100/carboplatin) were analyzed by western blots to check phosphorylation status of MET at Ser985 and Tyr1234/1235. Actin was used as a loading control (n=3). […]
Phenotype Microarrays (PMs) use a patented redox chemistry, employing cell respiration as a universal reporter. […] The redox assay provides for both amplification and precise quantitation of phenotypes. […]

For another data set, the system named is MET. Description: MET phosphorylation (Tyr 1234/1235) western blot after HGF stimulation. It counts as cell-based. The settings on record: HGF 10 min.
Description: as §1, with “FIG. 4E: H524 and H69 cells were treated overnight with LB-100 (H524—5 μM and H69—20 μM) following by stimulation with 100 ng/ml HGF in 10 min. Cells were collected and lysed for WB analysis with pMET and total MET antibody. Pan-actin was used as loading control (n=3).” left out
Whole cell lysates were prepared using RIPA lysis buffer and proteins were detected by immunoblotting using antibodies specific against PP2A A, PP2A C, Phospho-Histone H2AX (S139), MET, pMet (Tyr 1234/1235), Cleaved Caspase 3 and pan-Actin antibodies from CST (City of Industry, CA), Cleaved PARP1 (Santa Cruz Biotechnology, Dallas, Tex.) and pMET (Ser985) (ThermoFisher Scientific, Waltham, Mass.) were used as described previously (22).
In general terms: Immunoblotting shows a protein as a band on a membrane.

The subject of a further data set is H526 cells. The settings on record: human, 72 h.

These results are taken from patent publication US20230065158A1, “OXABICYCLOHEPTANES FOR TREATMENT OF SMALL CELL LUNG CANCER” (Lixte Biotechnology, Inc., priority 2021, published 2023).

Description for H526 cells: To determine specific cytotoxicity, we used Cell Counting Kit-8 (Dojindo Molecular Technologies, Rockville, Md.) as previously described (50).

One may read the IC50 as the concentration needed to halve the response being measured. On to `C[NH+]1CCN(C(=O)C2C(C(=O)O)[C@H]3CC[C@@H]2O3)CC1` (stereo in doubt) [LB-100, 3-[(4-Methylpiperazin-1-yl)carbonyl]-7-oxabicyclo[2.2.1]heptane-2-carboxylic acid], for which, in the data set with H69 cells, the “reduction of glycogen consumption” value was “more than 2.7 fold” and the “reduction of α-D-Glucose consumption” value was “more than 6 fold”. Further, the “level of HGF phosphorylation of MET” value in the data set on MET (H69, LB100 20 μM) was “significantly decreased”. Also, the “MET basal and HGF activated phosphorylation” value with MET (H524, LB100 5 μM) was “almost abrogated”. In addition, in the data set on H526 cells, the midpoint of inhibition, the IC50, lay at 7.2 µM.
